Results published in PMC9917560, “Design, Synthesis and Antimicrobial Evaluation of New N-(1-Hydroxy-1,3-dihydrobenzo[c][1,2]oxaborol-6-yl)(hetero)aryl-2-carboxamides as Potential Inhibitors of Mycobacterial Leucyl-tRNA Synthetase” (International Journal of Molecular Sciences, 2023).
Converted amounts (≈) assume the structure as drawn. Like-named read-outs stand apart in the source and are kept apart here.

Experiments:
Format in all cases: cell-based
[1] = test system: Staphylococcus aureus subsp. aureus CCM 4223 (ATCC 29213); assay: Antibacterial microdilution broth (EUCAST)
[2] = test system: methicillin-resistant Staphylococcus aureus subsp. aureus (MRSA) CCM 4750 (ATCC 43300); assay: microbe, parasite or virus in culture; conditions: 24 h
[3] = test system: Staphylococcus epidermidis CCM 4418 (ATCC 12228); assay: Antibacterial microdilution broth (EUCAST)
[4] = test system: Enterococcus faecalis CCM 4224 (ATCC 29212); assay: Antibacterial microdilution broth (EUCAST); conditions: 24 h
[5] = test system: Escherichia coli CCM 3954 (ATCC 25922); assay: Antibacterial microdilution broth (EUCAST); conditions: Escherichia coli
[6] = test system: Klebsiella pneumoniae CCM 4415 (ATCC 10031); assay: Antibacterial microdilution broth (EUCAST); conditions: Klebsiella pneumoniae
[7] = test system: Acinetobacter baumannii DSM 30007 (ATCC 19606); assay: Antibacterial microdilution broth (EUCAST); conditions: 24 h
[8] = test system: Pseudomonas aeruginosa CCM 3955 (ATCC 27853); assay: Antibacterial microdilution broth (EUCAST)
[9] = test system: Candida albicans CCM 8320 (ATCC 24433); assay: Antifungal microdilution broth (EUCAST); conditions: for MIC: read-out: MIC (visual detection)
[10] = test system: Candida krusei CCM 8271 (ATCC 6258); assay: Antifungal microdilution broth (EUCAST); conditions: Pichia kudriavzevii; for MIC: read-out: MIC (visual detection)
[11] = test system: Candida parapsilosis CCM 8260 (ATCC 22019); assay: Antifungal microdilution broth (EUCAST); conditions: Lodderomyces parapsilosis; for MIC: read-out: MIC (visual detection)
[12] = test system: Candida tropicalis CCM 8264 (ATCC 750); assay: Antifungal microdilution broth (EUCAST); conditions: for MIC: read-out: MIC (visual detection)
[13] = test system: Aspergillus fumigatus ATCC 204305; assay: Antifungal microdilution broth (EUCAST); conditions: for MIC: read-out: MIC (visual detection)
[14] = test system: Aspergillus flavus CCM 8363; assay: Antifungal microdilution broth (EUCAST); conditions: for MIC: read-out: MIC (visual detection)
[15] = test system: Lichtheimia corymbifera CCM 8077; assay: Antifungal microdilution broth (EUCAST); conditions: for MIC: read-out: MIC (visual detection)
[16] = test system: Trichophyton interdigitale CCM 8377 (ATCC 9533); assay: Antifungal microdilution broth (EUCAST); conditions: for MIC: read-out: MIC (visual detection)
[17] = test system: Mycobacterium tuberculosis H37Ra ITM-M006710 (ATCC 9431); assay: Antimycobacterial microdilution (resazurin) vs Mtb H37Ra; conditions: Middlebrook 7H9, resazurin, recalculated from µg/mL, read-out: MIC Mtb H37Ra
[18] = test system: Mycobacterium tuberculosis H37Rv CNCTC My 331/88 (ATCC 27294); assay: Microplate Alamar Blue assay vs Mtb H37Rv; conditions: Mycobacterium tuberculosis, pH 6.6, MABA, Middlebrook 7H9 pH 6.6, recalculated from µg/mL; read-out: MIC Mtb H37Rv
[19] = test system: Mycobacterium kansasii DSM 44,162 (ATCC 12478); assay: Antimycobacterial microdilution (resazurin) vs M. kansasii; conditions: Middlebrook 7H9, resazurin, read-out: MIC M. kansasii
[20] = test system: Mycobacterium avium DSM 44,156 (ATCC 25291); assay: Antimycobacterial microdilution (resazurin) vs M. avium; conditions: Mycobacterium avium, Middlebrook 7H9, resazurin; read-out: MIC M. avium
[21] = test system: Mycolicibacterium aurum DSM 43,999 (ATCC 23366); assay: Antimycobacterial microdilution (resazurin) vs M. aurum; conditions: Middlebrook 7H9, resazurin, read-out: MIC M. aurum
[22] = test system: Mycolicibacterium smegmatis DSM 43,465 (ATCC 607); assay: Antimycobacterial microdilution (resazurin) vs M. smegmatis; conditions: Middlebrook 7H9, resazurin, read-out: MIC M. smeg.
[23] = read-out: MIC (spectrophotometric detection, 530 nm)
[24] = read-out: MIC (visual detection)
[25] = 24 h, read-out: IC50 (spectrophotometric detection, 530 nm)

## CNC(C)C1CCC(N)C(OC2C(N)CC(N)C(OC3OCC(C)(O)C(NC)C3O)C2O)O1 (stereo not drawn) [gentamicin, reference compound]
[1]; S. aureus CCM 4223, 95% growth inhibition, 24 h, read-out: MIC (spectrophotometric detection, 530 nm)
  MIC: 2.09 µM (≈ 1 µg/mL)
[1]; S. aureus CCM 4223, 24 h, read-out: MIC (visual detection)
  MIC: 1.05 µM (≈ 0.5 µg/mL)
[2]; [23]
  MIC: > 16.8 µM
[2]; [24]
  MIC: > 16.8 µM
[3]; S. epidermidis CCM 4418, 95% growth inhibition, 24 h, read-out: MIC (spectrophotometric detection, 530 nm)
  MIC: 0.131 µM (≈ 0.0626 µg/mL)
[3]; S. epidermidis CCM 4418, 24 h, read-out: MIC (visual detection)
  MIC: 0.131 µM (≈ 0.0626 µg/mL)
[4]; [23]
  MIC: > 16.8 µM
[4]; [24]
  MIC: > 16.8 µM
[5]; E. coli CCM 3954, 95% growth inhibition, 24 h, read-out: MIC (spectrophotometric detection, 530 nm)
  MIC: 2.09 µM (≈ 1 µg/mL)
[5]; E. coli CCM 3954, 24 h, read-out: MIC (visual detection)
  MIC: > 2.09 µM
[6]; K. pneumoniae CCM 4415, 95% growth inhibition, 24 h, read-out: MIC (spectrophotometric detection, 530 nm)
  MIC: 1.05 µM (≈ 0.5 µg/mL)
[6]; K. pneumoniae CCM 4415, 24 h, read-out: MIC (visual detection)
  MIC: 1.05 µM (≈ 0.5 µg/mL)
[7]; [23]
  MIC: 16.8 µM (≈ 8 µg/mL)
[7]; [24]
  MIC: 16.8 µM (≈ 8 µg/mL)
[8]; P. aeruginosa CCM 3955, 95% growth inhibition, 24 h, read-out: MIC (spectrophotometric detection, 530 nm)
  MIC: 1.05 µM (≈ 0.5 µg/mL)
[8]; P. aeruginosa CCM 3955, 24 h, read-out: MIC (visual detection)
  MIC: 1.05 µM (≈ 0.5 µg/mL)

## C[C@@H]1[C@H](O)[C@@H](C)/C=C/C=C/C=C/C=C/C=C/C=C/C=C/[C@H](O[C@@H]2O[C@H](C)[C@@H](O)[C@H](N)[C@@H]2O)C[C@@H]2O[C@](O)(C[C@@H](O)C[C@@H](O)[C@H](O)CC[C@@H](O)C[C@@H](O)CC(=O)O[C@H]1C)C[C@H](O)[C@H]2C(=O)O [amphotericin B, reference compound]
[9]; Candida albicans CCM 8320, 24 h, read-out: IC90 (spectrophotometric detection, 530 nm)
  IC90: 1080 nM
[9]; Candida albicans CCM 8320, 24 h
  MIC: 1.08 µM (≈ 1 µg/mL)
[10]; Candida krusei CCM 8271, 24 h, read-out: IC90 (spectrophotometric detection, 530 nm)
  IC90: 1080 nM
[10]; Candida krusei CCM 8271, 24 h
  MIC: 1.08 µM (≈ 1 µg/mL)
[11]; Candida parapsilosis CCM 8260, 24 h, read-out: IC90 (spectrophotometric detection, 530 nm)
  IC90: 541 nM
[11]; Candida parapsilosis CCM 8260, 24 h
  MIC: 0.541 µM (≈ 0.5 µg/mL)
[12]; ATCC 750 / CCM 8264 / CCM 8321, CCM 8321, 24 h, read-out: IC90 (spectrophotometric detection, 530 nm)
  IC90: 1080 nM
[12]; ATCC 750 / CCM 8264 / CCM 8321, CCM 8321, 24 h
  MIC: 1.08 µM (≈ 1 µg/mL)
[13]; ATCC204305, Aspergillus fumigatus ATCC 204305, 48 h, read-out: IC90 (spectrophotometric detection, 530 nm)
  IC90: 4330 nM
[13]; ATCC204305, Aspergillus fumigatus ATCC 204305, 48 h
  MIC: 4.33 µM (≈ 4 µg/mL)
[14]; CCM8363, Aspergillus flavus CCM 8363, 48 h, read-out: IC90 (spectrophotometric detection, 530 nm)
  IC90: 4330 nM
[14]; CCM8363, Aspergillus flavus CCM 8363, 48 h
  MIC: 4.33 µM (≈ 4 µg/mL)
[15]; CCM8077, Lichtheimia corymbifera CCM 8077, 48 h, read-out: IC90 (spectrophotometric detection, 530 nm)
  IC90: 1080 nM
[15]; CCM8077, Lichtheimia corymbifera CCM 8077, 48 h
  MIC: 1.08 µM (≈ 1 µg/mL)
[16]; Trichophyton interdigitale CCM 8377, read-out: IC90 (spectrophotometric detection, 530 nm)
  IC90: 1080 nM
[16]; Trichophyton interdigitale CCM 8377
  MIC: 1.08 µM (≈ 1 µg/mL)

## O=C(O)c1cn(C2CC2)c2cc(N3CCNCC3)c(F)cc2c1=O [CIP, ciprofloxacin, reference compound]
[17]
  MIC: 1.51 µM (≈ 0.5 µg/mL)
[18]
  MIC: 0.6 µM (≈ 0.199 µg/mL)
[19]
  MIC: 0.75 µM (≈ 0.249 µg/mL)
[20]
  MIC: 1.51 µM (≈ 0.5 µg/mL)
[21]
  MIC: 0.05 µM (≈ 0.0166 µg/mL)
[22]
  MIC: 0.19 µM (≈ 0.063 µg/mL)

## C[C@@H](c1ncncc1F)[C@](O)(Cn1cncn1)c1ccc(F)cc1F [voriconazole, reference compound]
[9]; Candida albicans, 24 h, read-out: IC50 (spectrophotometric detection, 530 nm)
  IC50: 86 nM
[9]; Candida albicans, 24 h
  MIC: > 45.8 µM
[10]; [25]
  IC50: 716 nM
[10]; 24 h
  MIC: > 45.8 µM
[11]; [25]
  IC50: 86 nM
[11]; 24 h
  MIC: > 45.8 µM
[12]; ATCC 750 / CCM 8264 / CCM 8321, 24 h, read-out: IC50 (spectrophotometric detection, 530 nm)
  IC50: 179 nM
[12]; ATCC 750 / CCM 8264 / CCM 8321, 24 h
  MIC: > 45.8 µM
[13]; Aspergillus fumigatus, ATCC204305, 48 h, read-out: IC50 (spectrophotometric detection, 530 nm)
  IC50: 716 nM
[13]; Aspergillus fumigatus, ATCC204305, 48 h
  MIC: 2.86 µM (≈ 1 µg/mL)
[14]; Aspergillus flavus, CCM8363, 48 h, read-out: IC50 (spectrophotometric detection, 530 nm)
  IC50: 5730 nM
[14]; Aspergillus flavus, CCM8363, 48 h
  MIC: > 45.8 µM
[15]; Lichtheimia corymbifera, CCM8077, 48 h, read-out: IC50 (spectrophotometric detection, 530 nm)
  IC50: > 45800 nM
[15]; Lichtheimia corymbifera, CCM8077, 48 h
  MIC: > 45.8 µM
[16]; Trichophyton interdigitale, read-out: IC50 (spectrophotometric detection, 530 nm)
  IC50: 2860 nM
[16]; Trichophyton interdigitale
  MIC: > 45.8 µM
